# Results taken from US7091351B2, “Vanadium compounds for treating cancer” (Parker Hughes Institute, priority 1998, dated 2006).
# Tested on: Tera-2 testicular cancer cells
# Experiment: MTT cytotoxicity assay of vanadocenes, TERA-2 cells
# Format: cell-based, human
# Conditions: 24 h, 1.9-250 μM
# Protocol: (§1) Human testicular cancer cell lines, Tera-2 (embryonal carcinoma) and Ntera-2 (pluripotent embryonal carcinoma) were obtained from the American Type Culture Collection (ATCC) (Rockeville, Md.) and propagated in T-25, T-75, or T-150 cm^2 tissue culture flasks (Corning Corp., Corning, N.Y.) in McCoy's 5A medium and Dulbecco's modified Eagle's medium respectively. Both media were supplemented with 10% fetal calf serum (FCS), 4 mM glutamine, 100 U/ml penicillin G, and […] streptomycin sulfate. All tissue culture reagents were obtained from Life Technologies Inc. (GIBCO-BRL), Gaithersburg, Md. Cell lines were cultivated for a minimum of two passages after thawing prior to experimentation. Other cell lines that were used in this study were the human B-lineage acute lymphoblastic leukemia (ALL) cell line NALM-6. Uckun, F. M., Evans, W. E., Forsyth, C. J., Waddick, K. G., Tuel-Ahlgren, L., Chelstrom, L. M., Burkhardt, A., Bolen, J., Myers, D. E. Biotherapy of B-cell precursor leukemia by targeting genistein to CD19-associated tyrosine kinase. Science (Washington DC) 267:886–91, 1995; T-lineage ALL cell line MOLT-3, Waurzyniak, B., Shneider, E. A., Tumer, N., Yanishevski, Y., Gunther, R., Chelstrom, L., Wendorf, H., Myers, D. E., Irvin, J. D., Messinger, Y., Ek, O., Zeren, T., Chandan-Langlie, M., Evans, W. E., Uckun, F. M. In vivo toxicity, pharmacokinetics, and antileukemic activity of TXU (anti-CD7)-pokeweed antiviral protein immunotoxin. Clinical Cancer Research 3:881–890, 1997; AML cell line HL-60, Perentesis, J. P., Waddick, K. G., Bendel, A. E., Shao, Y., Warman, B. E., Chandan-Langlie, M., and Uckun, F. M. Induction of apoptosis in multi-drug resistant andradiation-resistant acute myeloid leukemia cells by a recombinant fusion toxin directed against the granulocyte macrophage colony stimulating factor receptor. Clin. Cancer Res. 3:347–355, 1997; breast cancer cell lines MDA-MB-231 and BT-20, Uckun, F. M., Narla, R. K., Jun, X., Zeren, T., Venkatachalam, T., Waddick, K. G., Rostostev, A., Myers, D. E. Cytotoxic activity of EGF-genstein against breast cancer cells. Clin. Cancer Res. 4:901–912, 1998; glioblastoma cell lines U87 and U373, Narla, R. K., Liu, X., Myers, D. E., and Uckun, F. M. 4-(3′-Bromo-4′hydroxylphenyl)-amino-6,7-dimethoxyquinazoline (WHI-P154): A novel quinazoline derivative with potent cytotoxic activity against human glioblastoma cells. Clin. Cancer Res. 4:1405–1414, 1998.
# (§2) MTT (3-[4,5-dimethyl thiazol-2-yl]-2,5-diphenyltetrazolium bromide)-based colorimetric assays were used for evaluation of the cytotoxicity of vanadocene compounds. Mosmann, T. Rapid colorimetric assay for cellular growth and survival: application to proliferation and cytotoxicity assays. J. Immunol. Methods, 65: 55–63, 1983. Briefly, cells were harvested with 0.125% (w/v) trypsin-0.02% EDTA (GIBCO-BRL) from exponential-phase maintenance cultures and centrifuged (300 g×5 min). After suspension and counting, cells were dispensed within triplicate 96-well tissue culture plates in 100 μl volumes. After 24 h incubation, the culture medium was discarded and replaced with 100 μl of fresh medium containing serial two-fold dilutions of drugs in medium to yield 1.9 μM to 250 μM. All compounds were reconstituted in DMSO to a concentration of 100 mM, and the stock solution was made fresh for each experiment. Control wells consisted of medium containing 0.25% of DMSO alone were used for solvent control. Culture plates were then incubated for 24 h before adding 10 μl of MTT solution (5 mg/ml in PBS) to each well. Wells containing only medium and MTT were used as controls for each plate. The tetrazolium/formazan reaction was allowed to proceed for 4 h at 37° C., and then 100 μl of the solubilization buffer (10% sodium dodecyl sulfate in 0.1% HCl) were added to all wells and mixed thoroughly to dissolve the dark blue formazan crystals. […]
row,Compound,IC50 [µM]
1,HfCp2Cl2 [HDC],> 250
2,VCp2(dtc) [VD(dtc)],60
3,"[O-]c1ccccc1[O-].[V+2].c1cc[cH-]c1.c1cc[cH-]c1 [VD(cat), Cp2V(cat)]",79
4,VCp2(PH) [VDPH],> 250
5,"Cc1c(C)c(C)[c-](C)c1C.Cc1c(C)c(C)[c-](C)c1C.[Cl-].[Cl-].[V+2] [VPMDC, V(Me5Cp)2Cl2]",127
6,VCp2(NCS)2.0.5H2O [VDSCN],23
7,"CC(=O)[CH-]C(C)=O.O=S(=O)([O-])C(F)(F)F.[V+4].c1cc[cH-]c1.c1cc[cH-]c1 [VD(acac), VCp2(acac)(O3SCF3)]",64
8,ZrCp2Cl2 [ZDC],> 250
9,"[Cl-].[N-]=C=O.[V+2].c1cc[cH-]c1.c1cc[cH-]c1 [VDCO, VCp2(NCO)Cl]",50

# Tested on: Ntera-2 testicular cancer cells
# Experiment: Flow cytometric TUNEL apoptosis assay, NTERA-2 cells
# Format: cell-based, human
# Conditions: 24 h, TUNEL-positive nuclei
# Protocol: (§3) A flow cytometric two-color terminal […] transferase (TdT)-mediated digoxigenin-uridine triphosphate (dUTP) nick-end labeling assay (TUNEL) was employed to detect apoptotic nuclei. Gavrieli, Y., Sherman, Y., Ben-Sasson, S. A. Identification of programmed cell death in situ via specific labeling of nuclear DNA fragmentation. J. Cell Biol., 119: 493–501, 1992. Exponentially growing cells (10^6/ml) were incubated in DMSO alone (0.1%) or treated with 100 μM each of the 16 vanadocenes (VDB, VDC, VMDC, VDI, VDA, VDCN, VDOCN, VDSCN, VDSeCN, VDT, VDCO, VDFe, VD(acac), VDH, VD(dpy), and VD(dtc) in 0.1% DMSO for 24 h. Cells were washed in PBS, fixed in 4% paraformaldehyde in PBS for 15 min on ice. Following two washings in PBS, they were permeabilized with 0.1% Triton X-100 in 0.1% sodium citrate for 2 min on ice, and washed twice in PBS. Labeling of exposed 3′-hydroxyl (3′-OH) ends of fragmented nuclear DNA was performed using TdT and fluorescein isothiocyanate (FITC)-conjugated dUTP according to the manufacturer's recommendations (Boehringer Mannheim, Indianapolis, Ind.). Cells were counterstained with 5 μg/ml PI. Control samples included: (i) untreated cells; (ii) cells incubated with the reaction mixture without the TdT enzyme. Cells were analyzed with a FACS Calibur flow cytometer (Becton Dickinson, Mountain View, Calif.). Relative DNA content (PI) was detected with band-pass filter 585/42, and dUTP incorporation (FITC) was detected with band-pass filter 530/30. Fluorescence was compensated for in the acquisition software using single-label control samples. Data were acquired in listmode, gated to 10,000 events per sample, and analyzed with the use of CELLQuest software program (Becton Dickinson). […] Vanadocene-induced apoptosis is shown by an increase in the number of cells staining with FITC-dUTP. The M1 and M2 gates were used to demarcate non-apoptotic and apoptotic PI-counterstained cell populations, respectively. TUNEL assays were performed using two testicular cell lines Tera-2 and Ntera-2 following exposure to each of the 16 vanadocenes. In other experiments, MC540 binding (as an early marker of apoptosis) and PI permeability (as a marker of advanced stage apoptosis) were simultaneously measured in human cancer cells 24 hours after exposure to vanadocenes, as previously described. Uckun, F. M., Narla, R. K., Jun, X., Zeren, T., Venkatachalam, T., Waddick, K. G., Rostostev, A., Myers, D. E. Cytotoxic activity of EGF-genstein against breast cancer cells. Clin. Cancer Res. 4:901–912, 1998. Vassilev, A., Ozer, Z., Navara, C., Mahajan, S., and Uckun, F. M. Bruton's tyrosine kinase as an inhibitor of the Fas/CD95 death-inducing signaling complex. J. Biol. Chem. 274:1646–56, 1999. Whole cells were analyzed using a FACStar Plus flow cytometer (Becton Dickinson, San Jose, Calif.). All analyses were done using 488 nm excitation from an argon laser. MC540 and PI emissions were split with a 600 nm short pass dichroic mirror and a 575 nm band pass filter was placed in front of one photomultiplier tube to measure MC540 emission and a 635 nm band pass filter was used for PI emission.
row,Compound,% Apoptosis at 100 μM NTERA-2
1,VCp2(dtc) [VD(dtc)],67 ± 13 (N = 3) %
2,"[O-]c1ccccc1[O-].[V+2].c1cc[cH-]c1.c1cc[cH-]c1 [VD(cat), Cp2V(cat)]","12 (9, 15) %"
3,VCp2(PH) [VDPH],90 ± 3 (N = 4) %
4,"Cc1c(C)c(C)[c-](C)c1C.Cc1c(C)c(C)[c-](C)c1C.[Cl-].[Cl-].[V+2] [VPMDC, V(Me5Cp)2Cl2]","34 (33, 35) %"
5,VCp2(NCS)2.0.5H2O [VDSCN],"53 (46, 60) %"
6,"CC(=O)[CH-]C(C)=O.O=S(=O)([O-])C(F)(F)F.[V+4].c1cc[cH-]c1.c1cc[cH-]c1 [VD(acac), VCp2(acac)(O3SCF3)]",48 ± 13 (N = 3) %
7,"[Cl-].[N-]=C=O.[V+2].c1cc[cH-]c1.c1cc[cH-]c1 [VDCO, VCp2(NCO)Cl]","98 (97, 99) %"

# Tested on: Tera-2 testicular cancer cells
# Experiment: Flow cytometric TUNEL apoptosis assay, TERA-2 cells
# Format: cell-based, human
# Conditions: 24 h, TUNEL-positive nuclei
# Protocol: as §3
row,Compound,% Apoptosis at 100 μM TERA-2
1,VCp2(dtc) [VD(dtc)],"83 (82, 84) %"
2,VCp2(PH) [VDPH],88 ± 3 (N = 3) %
3,"Cc1c(C)c(C)[c-](C)c1C.Cc1c(C)c(C)[c-](C)c1C.[Cl-].[Cl-].[V+2] [VPMDC, V(Me5Cp)2Cl2]","35 (35, 36) %"
4,VCp2(NCS)2.0.5H2O [VDSCN],"64 (58, 69) %"
5,"CC(=O)[CH-]C(C)=O.O=S(=O)([O-])C(F)(F)F.[V+4].c1cc[cH-]c1.c1cc[cH-]c1 [VD(acac), VCp2(acac)(O3SCF3)]",72 ± 17%
6,"[Cl-].[N-]=C=O.[V+2].c1cc[cH-]c1.c1cc[cH-]c1 [VDCO, VCp2(NCO)Cl]","73 (67, 78) %"

# Tested on: U373 glioblastoma cells
# Experiment: MTT cytotoxicity assay of vanadocenes, U373 cells
# Format: cell-based, human
# Conditions: 24 h
# Protocol: as §1, §2
row,Compound,IC50 [µM]
1,HfCp2Cl2 [HDC],> 250
2,VCp2(dtc) [VD(dtc)],7
3,"Cc1c(C)c(C)[c-](C)c1C.Cc1c(C)c(C)[c-](C)c1C.[Cl-].[Cl-].[V+2] [VPMDC, V(Me5Cp)2Cl2]",172
4,VCp2(NCS)2.0.5H2O [VDSCN],19
5,ZrCp2Cl2 [ZDC],> 250

# Tested on: Ntera-2 testicular cancer cells
# Experiment: MTT cytotoxicity assay of vanadocenes, NTERA-2 cells
# Format: cell-based, human
# Conditions: 24 h, 1.9-250 μM
# Protocol: as §1, §2
row,Compound,IC50 [µM]
1,HfCp2Cl2 [HDC],> 250
2,VCp2(dtc) [VD(dtc)],83
3,"[O-]c1ccccc1[O-].[V+2].c1cc[cH-]c1.c1cc[cH-]c1 [VD(cat), Cp2V(cat)]",93
4,VCp2(PH) [VDPH],61
5,"Cc1c(C)c(C)[c-](C)c1C.Cc1c(C)c(C)[c-](C)c1C.[Cl-].[Cl-].[V+2] [VPMDC, V(Me5Cp)2Cl2]",44
6,VCp2(NCS)2.0.5H2O [VDSCN],17
7,"CC(=O)[CH-]C(C)=O.O=S(=O)([O-])C(F)(F)F.[V+4].c1cc[cH-]c1.c1cc[cH-]c1 [VD(acac), VCp2(acac)(O3SCF3)]",75
8,ZrCp2Cl2 [ZDC],> 250
9,"[Cl-].[N-]=C=O.[V+2].c1cc[cH-]c1.c1cc[cH-]c1 [VDCO, VCp2(NCO)Cl]",90
